Measured values: ChEMBL document CHEMBL1201862, “PubChem BioAssay data set” (2004)
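Each compound was tested at five concentrations against cells in 96-well plates for 48 hours. Abbreviation: GI50, concentration required for 50% inhibition of growth.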 Calls of active or inactive are those of the source. Cut-off read from the data, not from the text of the source: active = GI50 up to about 1.1 µM and inactive = higher.

How the values were obtained:
Assay in all cases: inhibition of tumour cell growth, NCI panel, 48 h
BT-549 = system: BT-549
DLD-1 = system: DLD-1
DMS-114 = system: DMS-114
DMS-273 = system: DMS-273
KM-20L2 = system: KM-20L2
RXF 631 = system: RXF 631
XF498 = system: XF498
HOP-18 = system: HOP-18
SNB-78 = system: SNB-78

Compound | GI50 (BT-549) | GI50 (DLD-1) | GI50 (DMS-114) | GI50 (KM-20L2) | other results
Clc1ccc2c(c1)N(CCCN1CCCC13CCCCC3)c1ccccc1S2 | 14.9 µM (inactive) | – | – | – | –
Cc1ccc2nc(CC(=O)c3ccc4ccccc4c3)c(O)nc2c1 | > 100 µM (inactive) | – | – | – | –
CCOC(=O)c1c(SCCN2CCCC2)n(-c2ccccc2)c(=S)n(-c2ccccc2)c1=O | 5.37 µM (inactive) | – | – | – | –
Cc1cnc2sn(-c3ccc([N+](=O)[O-])cc3)c(=O)c2c1 | 43.2 µM (inactive) | – | – | – | –
O=C1C2=C(SCCS2)C(=O)c2ccccc21 | – | 1.96 µM (inactive) | 0.871 µM (active) | 1.94 µM (inactive) | GI50 (DMS-273): 1.81 µM (inactive); GI50 (RXF 631): 1.82 µM (inactive); GI50 (XF498): 1.64 µM (inactive)
Nn1c(CCCCCCCCc2nnc(COc3ccc(Cl)cc3)n2N)nnc1COc1ccc(Cl)cc1 | > 100 µM (inactive) | – | – | – | –
CC/C(Cl)=N\OC(=O)Nc1ccc(C#N)cc1 | 15.1 µM (inactive) | – | – | – | –
NCCNCC(O)CO (stereo not drawn) | > 100 µM (inactive) | – | – | – | –
O=C(N/N=C/c1cc(Br)ccc1O)N/N=C/c1cc(Br)ccc1O | – | 2.9 µM (inactive) | 1.18 µM (inactive) | 4.85 µM (inactive) | GI50 (DMS-273): 0.791 µM (active); GI50 (RXF 631): 14.2 µM (inactive); GI50 (XF498): 2.19 µM (inactive)
c1ccc2c(c1)Cn1c-2nc2ccccc21 | > 100 µM (inactive) | – | – | – | –
CN1OC(CO)CC12C1CC3CC(C1)CC2C3 (stereo not drawn) | – | > 100 µM (inactive) | > 100 µM (inactive) | > 100 µM (inactive) | GI50 (DMS-273): > 100 µM (inactive); GI50 (HOP-18): > 100 µM (inactive)
CCOC(=O)CSc1nc(-c2ccc(Cl)cc2)c(C#N)c(=O)[nH]1 | > 100 µM (inactive) | – | – | – | –
Cc1cc(CNC(=O)OCc2ccccc2)c(C)c2c1Oc1ccccc1O2 | 62.8 µM (inactive) | – | – | – | –
CSc1ccc(Cc2cc(C(C)(C)C)cc(C(C)(C)C)c2O)cc1 | – | 13.8 µM (inactive) | 13 µM (inactive) | 14.6 µM (inactive) | GI50 (DMS-273): 13.7 µM (inactive); GI50 (HOP-18): 19.6 µM (inactive); GI50 (RXF 631): 14.9 µM (inactive); GI50 (SNB-78): 14.9 µM (inactive); GI50 (XF498): 17.8 µM (inactive)
S=c1oc(CCCCCCCCc2nn(CNc3ccccc3)c(=S)o2)nn1CNc1ccccc1 | > 100 µM (inactive) | – | – | – | –
Cc1cccc(/N=N/C(=N\NC(=O)c2cc(Cl)ccc2O)c2ccc(N(CCC#N)CCC#N)cc2C)c1 | 24.2 µM (inactive) | – | – | – | –

Compound | GI50 (BT-549) | GI50 (DLD-1) | GI50 (DMS-114) | GI50 (KM-20L2) | other results
c1ccc(C(=NNc2nc3ccccc3[nH]2)c2ccccn2)nc1 | 0.48 µM (active) | – | – | – | –
C=CCN(N=O)C(=O)N(CCCCC(NC(C)=O)C(=O)NCc1ccccc1)Cc1ccccc1 (stereo not drawn) | – | – | 27.7 µM (inactive) | 18.9 µM (inactive) | GI50 (DMS-273): 41.1 µM (inactive); GI50 (HOP-18): 23 µM (inactive); GI50 (RXF 631): 32.5 µM (inactive); GI50 (XF498): 36.1 µM (inactive)
O=C1NC(=O)C2C(=O)NC(=O)C1C2(c1ccccc1)c1cc[nH]c1 (stereo not drawn) | – | > 100 µM (inactive) | > 100 µM (inactive) | – | GI50 (DMS-273): > 100 µM (inactive); GI50 (SNB-78): > 100 µM (inactive); GI50 (XF498): > 100 µM (inactive)
Cc1ccc(S(=O)(=O)N/N=C(\CCN2CCCC2)CC(c2ccccc2)c2c(O)c3ccccc3oc2=O)cc1 (stereo not drawn) | – | > 100 µM (inactive) | – | > 100 µM (inactive) | GI50 (HOP-18): > 100 µM (inactive); GI50 (RXF 631): > 100 µM (inactive); GI50 (SNB-78): > 100 µM (inactive); GI50 (XF498): > 100 µM (inactive)
Br/C(=N\N=c1/nn[nH][nH]1)c1ccncc1 | > 100 µM (inactive) | – | – | – | –
CC(C)(C)C1=Cc2cc3cc(C(C)(C)C)[nH]c(=O)c3cc2S(=O)(=O)N1 | – | 31.7 µM (inactive) | 21.4 µM (inactive) | – | GI50 (SNB-78): 42.1 µM (inactive)
c1ccc2c(c1)nc1n2CCCn2ccnc2-1 | > 100 µM (inactive) | – | – | – | –
N#Cc1c(-c2ccccc2)cc(-c2ccc(N)cc2)[nH]c1=O | – | > 100 µM (inactive) | > 100 µM (inactive) | > 100 µM (inactive) | GI50 (DMS-273): > 100 µM (inactive); GI50 (HOP-18): > 100 µM (inactive); GI50 (RXF 631): > 100 µM (inactive); GI50 (SNB-78): > 100 µM (inactive)
Cc1cc2nc3c(C#N)c(-c4ccccc4)cc(Nc4cccc(C(F)(F)F)c4)n3c2cc1C | 10.5 µM (inactive) | – | – | – | –
O=C1c2ccccc2OP(=O)(OCC(F)(F)F)OC1(C(F)(F)F)C(F)(F)F (stereo not drawn) | – | – | > 100 µM (inactive) | > 100 µM (inactive) | GI50 (DMS-273): > 100 µM (inactive); GI50 (SNB-78): > 100 µM (inactive); GI50 (XF498): > 100 µM (inactive)
Cc1ccc(Nc2cn(COCc3ccccc3)c(=O)[nH]c2=O)cc1 | 11.7 µM (inactive) | – | – | – | –
O=C(O)c1ccccc1CC1Cc2ccccc2C1 | > 100 µM (inactive) | – | – | – | –
CC1CC(c2ccc(Cl)cc2)=Nc2ccccc2S1 (stereo not drawn) | – | > 100 µM (inactive) | > 100 µM (inactive) | > 100 µM (inactive) | GI50 (RXF 631): > 100 µM (inactive); GI50 (SNB-78): > 100 µM (inactive)
Cc1ccc(Cl)c2c(=O)c3ccc(N)cc3sc12 | 29.4 µM (inactive) | – | – | – | –
O=C1CC(Cl)c2c1csc2Br (stereo not drawn) | 19.9 µM (inactive) | – | – | – | –
CCN1CCN(c2ccc(Nc3ccnc4ccc5nn(C)nc5c34)cc2)CC1 | – | 11.6 µM (inactive) | 10.1 µM (inactive) | 8.36 µM (inactive) | GI50 (RXF 631): 10 µM (inactive); GI50 (SNB-78): 14.2 µM (inactive); GI50 (XF498): 13.9 µM (inactive)
